Assay results as given in patent publication US20250388589A1, “TRICYCLIC HETEROCYCLIC DERIVATIVES, COMPOSITIONS AND USES THEREOF” (Danatlas Pharmaceuticals Co., Ltd., priority 2022, published 2025).
pIC50: −log10 of the molar value. Read-outs that look alike come from different tables or passages of the source.

Experiments:
[1] = biological target: hPARG (C-terminal His6-tag) (Homo sapiens (Human), UniProt Q86W56); test: PARG Enzymatic Activity Assay (HTRF); type: biochemical; conditions: hPARG 65 pM final, biotinylated-NAD ribosylated PARP1 8 nM final
Method in brief: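 Readout is time-resolved fluorescence at 620 and 665 nm after 60 min RT detection with streptavidin-Eu cryptate and anti-6HIS-XL665; IC50 by 4-parameter fit, 1% DMSO and no-enzyme controls. Reaction: 8 nM final ribosylated PARP1 substrate for 10 min RT, following 60 min RT enzyme (65 pM)–compound preincubation in Tris pH 7.4 buffer with EDTA, DTT, KCl.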

Kuramochi cell line = test: Cell Viability Assay (Cell Titer-Glo, 7 days); type: cell-based; conditions: Kuramochi cells, 7 days incubation, read-out: PARG Cell viability (IC50)
Method in brief: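 IC50 from a four-parameter fit of CellTiter-Glo luminescence, scaled between DMSO-treated (high) and medium-only (low) wells. Kuramochi cells (400/well, RPMI/10% FBS) exposed 7 days at 37 °C to 9 concentrations, 3-fold steps, in duplicate.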

Sequence of hPARG (C-terminal His6-tag) (Q86W56 whole entry): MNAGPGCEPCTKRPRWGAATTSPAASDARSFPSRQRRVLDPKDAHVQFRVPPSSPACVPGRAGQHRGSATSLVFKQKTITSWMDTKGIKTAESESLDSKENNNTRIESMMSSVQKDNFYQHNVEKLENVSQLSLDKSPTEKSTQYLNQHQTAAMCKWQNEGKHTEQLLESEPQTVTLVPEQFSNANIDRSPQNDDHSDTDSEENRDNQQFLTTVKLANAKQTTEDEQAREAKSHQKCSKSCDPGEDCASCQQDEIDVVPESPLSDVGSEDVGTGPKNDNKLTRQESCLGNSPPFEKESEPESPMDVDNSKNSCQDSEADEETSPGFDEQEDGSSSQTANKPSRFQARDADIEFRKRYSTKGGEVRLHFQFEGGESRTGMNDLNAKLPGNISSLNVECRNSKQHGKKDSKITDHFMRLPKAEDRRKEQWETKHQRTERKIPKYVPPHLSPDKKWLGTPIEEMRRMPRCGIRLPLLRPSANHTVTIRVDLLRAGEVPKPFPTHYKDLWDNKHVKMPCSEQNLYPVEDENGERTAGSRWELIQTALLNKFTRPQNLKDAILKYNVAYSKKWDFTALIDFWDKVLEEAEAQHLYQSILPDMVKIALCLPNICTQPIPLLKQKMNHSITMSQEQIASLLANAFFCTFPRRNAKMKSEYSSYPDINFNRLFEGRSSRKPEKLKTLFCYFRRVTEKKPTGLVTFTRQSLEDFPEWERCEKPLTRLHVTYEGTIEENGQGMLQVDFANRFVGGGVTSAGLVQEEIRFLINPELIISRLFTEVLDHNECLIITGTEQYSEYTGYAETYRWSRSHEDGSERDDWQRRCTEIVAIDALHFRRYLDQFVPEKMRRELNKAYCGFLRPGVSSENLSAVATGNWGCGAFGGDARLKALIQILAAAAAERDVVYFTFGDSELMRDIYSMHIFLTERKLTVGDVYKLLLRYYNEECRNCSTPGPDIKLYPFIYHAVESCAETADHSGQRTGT

| pIC50 [1] | SMILES | pIC50 (Kuramochi cell line; 168 h) | pIC50 (Kuramochi cell line) |
| --- | --- | --- | --- |
| > 7.00 | CC(C)C(=O)N1CC=C(c2ccnc3c2c2ccc(S(=O)(=O)NC4(C#N)CC4)cc2n3-c2nnc(C(F)F)s2)CC1 [Example 196, N-(1-Cyanocyclopropyl)-9-(5-(difluoromethyl)-1,3,4-thiadiazol-2-yl)-4-(1-isobutyryl-1,2,3,6-tetrahydropyridin-4-yl)-9H-pyrido[2,3-b]indole-7-sulfonamide] | 6.00 to 7.00 | – |
| > 7.00 | C[C@H]1CN(c2ncnc3c2c2cc(F)c(S(=O)(=O)NC4(C)CC4)cc2n3-c2nnc(C(F)F)s2)CCN1C(=O)N(C)C [Example 102, (S)-4-(9-(5-(Difluoromethyl)-1,3,4-thiadiazol-2-yl)-6-fluoro-7-(N-(1-methylcyclopropyl)sulfamoyl)-9H-pyrimido[4,5-b]indol-4-yl)-N,N,2-trimethylpiperazine-1-carboxamide] | > 7.00 | – |
| > 7.00 | CN1CCN(c2ncnc3c2c2ccc(S(=O)(=O)NC4(C#N)CC4)cc2n3-c2nnc(C(F)F)s2)C[C@@H]1CF [Example 203, (R)—N-(1-Cyanocyclopropyl)-9-(5-(difluoromethyl)-1,3,4-thiadiazol-2-yl)-4-(3-(fluoromethyl)-4-methylpiperazin-1-yl)-9H-pyrimido[4,5-b]indole-7-sulfonamide] | > 7.00 | – |
| > 7.00 | N#CC1(NS(=O)(=O)c2ccc3c4c(N5CCN6CCC[C@H]6C5)ncnc4n(-c4nnc(C(F)F)s4)c3c2)CC1 [Example 160, (S)—N-(1-Cyanocyclopropyl)-9-(5-(difluoromethyl)-1,3,4-thiadiazol-2-yl)-4-(hexahydropyrrolo[1,2-a]pyrazin-2(1H)-yl)-9H-pyrimido[4,5-b]indole-7-sulfonamide] | > 7.00 | – |
| > 7.00 | C[C@H]1CC(c2ncnc3c2c2cc(F)c(S(=O)(=O)NC4(C)CC4)cc2n3-c2nnc(C(F)F)s2)CCN1C(=O)N(C)C (stereo partly drawn) [Example 149, (2S)-4-(9-(5-(difluoromethyl)-1,3,4-thiadiazol-2-yl)-6-fluoro-7-(N-(1-methylcyclopropyl)sulfamoyl)-9H-pyrimido[4,5-b]indol-4-yl)-N,N,2-trimethylpiperidine-1-carboxamide] | – | > 7.00 |
| > 7.00 | CN1CCN(c2ncnc3c2c2ccc(S(=O)(=O)NC4(C#N)CC4)cc2n3-c2nnc(C(F)F)s2)CC1 [Example 56, N-(1-Cyanocyclopropyl)-9-(5-(difluoromethyl)-1,3,4-thiadiazol-2-yl)-4-(4-methylpiperazin-1-yl)-9H-pyrimido[4,5-b]indole-7-sulfonamide] | > 7.00 | – |
| > 7.00 | CN(C)[C@@H]1CCN(C(=O)N2CCC(c3ncnc4c3c3ccc(S(=O)(=O)NC5(C#N)CC5)cc3n4-c3nnc(C(F)F)s3)CC2)C1 [Example 137, (R)-N-(1-Cyanocyclo-propyl)-9-(5-(difluoromethyl)-1,3,4-thiadiazol-2-yl)-4-(1-(3-(dimethylamino)pyrrolidine-1-carbonyl)piperidin-4-yl)-9H-pyrimido[4,5-b] indole-7-sulfonamide] | 6.00 to 7.00 | – |
| > 7.00 | CCC(=O)N1CCC(c2ncnc3c2c2ccc(S(=O)(=O)NC4(C#N)CC4)cc2n3-c2nnc(C(F)F)s2)CC1 [Example 120, N-(1-cyanocyclopropyl)-9-(5-(difluoromethyl)-1,3,4-thiadiazol-2-yl)-4-(1-propionylpiperidin-4-yl)-9H-pyrimido[4,5-b]indole-7-sulfonamide] | > 7.00 | – |
| > 7.00 | Cn1ccnc1N1CCN(c2ncnc3c2c2ccc(S(=O)(=O)NC4(C#N)CC4)cc2n3-c2nnc(C(F)F)s2)CC1 [Example 22, N-(1-Cyanocyclopropyl)-9-(5-(difluoromethyl)-1,3,4-thiadiazol-2-yl)-4-(4-(1-methyl-JH-imidazol-2-yl)piperazin-1-yl)-9H-pyrimido[4,5-b]indole-7-sulfonamide] | 6.00 to 7.00 | – |
| > 7.00 | C[C@H]1CN(c2ncnc3c2c2ccc(S(=O)(=O)NC4(C#N)CC4)cc2n3-c2nnc(C(F)F)s2)CCN1C [Example 98, (S)—N-(1-Cyanocyclopropyl)-9-(5-(difluoromethyl)-1,3,4-thiadiazol-2-yl)-4-(3,4-dimethylpiperazin-1-yl)-9H-pyrimido[4,5-b]indole-7-sulfonamide] | > 7.00 | – |
| > 7.00 | COC(C)(C)C(=O)N1CCC(c2ncnc3c2c2ccc(S(=O)(=O)NC4(C#N)CC4)cc2n3-c2nnc(C(F)F)s2)CC1 [Example 119, N-(1-cyanocyclopropyl)-9-(5-(difluoromethyl)-1,3,4-thiadiazol-2-yl)-4-(1-(2-methoxy-2-methylpropanoyl)piperidin-4-yl)-9H-pyrimido[4,5-b]indole-7-sulfonamide] | > 7.00 | – |
| > 7.00 | CN(C)C(=O)N1CCC(c2ncnc3c2c2cc(F)c(S(=O)(=O)NC4(C)CC4)cc2n3-c2nnc(C(F)F)s2)CC1 [Example 82, 4-(9-(5-(Difluoromethyl)-1,3,4-thiadiazol-2-yl)-6-fluoro-7-(N-(1-methylcyclopropyl)sulfamoyl)-9H-pyrimido[4,5-b]indol-4-yl)-N,N-dimethylpiperidine-1-carboxamide] | > 7.00 | – |
| > 7.00 | N#CC1(NS(=O)(=O)c2ccc3c4c(N5CCCOCC5)ncnc4n(-c4nnc(C(F)F)s4)c3c2)CC1 [Example 170, N-(1-Cyanocyclopropyl)-9-(5-(difluoromethyl)-1,3,4-thiadiazol-2-yl)-4-(1,4-oxazepan-4-yl)-9H-pyrimido[4,5-b]indole-7-sulfonamide] | > 7.00 | – |
| > 7.00 | CN1CCC[C@@H]1C(=O)N1CCC(c2ncnc3c2c2ccc(S(=O)(=O)NC4(C#N)CC4)cc2n3-c2nnc(C(F)F)s2)CC1 [Example 104, N-(1-Cyanocyclopropyl)-9-(5-(difluoromethyl)-1,3,4-thiadiazol-2-yl)-4-(1-(methyl-D-prolyl)piperidin-4-yl)-9H-pyrimido[4,5-b]indole-7-sulfonamide] | 6.00 to 7.00 | – |
| > 7.00 | COC[C@H]1CN(c2ncnc3c2c2ccc(S(=O)(=O)NC4(C#N)CC4)cc2n3-c2nnc(C(F)F)s2)CCN1C [Example 204, (R)—N-(1-Cyanocyclopropyl)-9-(5-(difluoromethyl)-1,3,4-thiadiazol-2-yl)-4-(3-(methoxymethyl)-4-methylpiperazin-1-yl)-9H-pyrimido[4,5-b]indole-7-sulfonamide] | > 7.00 | – |
| > 7.00 | CN(C)C(=O)C1CCN(c2ncnc3c2c2ccc(S(=O)(=O)NC4(C#N)CC4)cc2n3-c2nnc(C(F)F)s2)CC1 [Example 179, 1-(7-(N-(1-Cyanocyclopropyl)sulfamoyl)-9-(5-(difluoromethyl)-1,3,4-thiadiazol-2-yl)-9H-pyrimido[4,5-b]indol-4-yl)-N,N-dimethylpiperidine-4-carboxamide] | > 7.00 | – |

| SMILES | pIC50 [1] | pIC50 (Kuramochi cell line; 168 h) | pIC50 (Kuramochi cell line) |
| --- | --- | --- | --- |
| N#CC1(NS(=O)(=O)c2ccc3c4c(N5CC6CC(C5)O6)ncnc4n(-c4nnc(C(F)F)s4)c3c2)CC1 [Example 176, 4-(6-oxa-3-azabicyclo[3.1.1]heptan-3-yl)-N-(1-cyanocyclopropyl)-9-(5-(difluoromethyl)-1,3,4-thiadiazol-2-yl)-9H-pyrimido[4,5-b]indole-7-sulfonamide] | > 7.00 | > 7.00 | – |
